# In patent US10413535B2, “Pharmaceutical compositions comprising an integrin ALPHA4 antagonist for use in treating ocular inflammatory conditions” (AXEROVISION, INC., priority 2015, dated 2019):
# pIC50: −log10 of the molar value. Read-outs that look alike come from different tables or passages of the source.
# How the values were obtained:
# α4β7-MAdCAM = target: T1, α4β7-MAdCAM (Homo sapiens, UniProt P13612+P26010); experiment: MAdCAM cell adhesion assay, RPMI 8866 cells; type: cell-based; details: RPMI 8866 cells to MAdCAM; read-out: Inhibition of cell adhesion (IC50)
# T1 construct: endogenous in cells; host or cells: RPMI 8866 cells (human B lymphoid cell line)
# T1 sequence (P13612 34-1032): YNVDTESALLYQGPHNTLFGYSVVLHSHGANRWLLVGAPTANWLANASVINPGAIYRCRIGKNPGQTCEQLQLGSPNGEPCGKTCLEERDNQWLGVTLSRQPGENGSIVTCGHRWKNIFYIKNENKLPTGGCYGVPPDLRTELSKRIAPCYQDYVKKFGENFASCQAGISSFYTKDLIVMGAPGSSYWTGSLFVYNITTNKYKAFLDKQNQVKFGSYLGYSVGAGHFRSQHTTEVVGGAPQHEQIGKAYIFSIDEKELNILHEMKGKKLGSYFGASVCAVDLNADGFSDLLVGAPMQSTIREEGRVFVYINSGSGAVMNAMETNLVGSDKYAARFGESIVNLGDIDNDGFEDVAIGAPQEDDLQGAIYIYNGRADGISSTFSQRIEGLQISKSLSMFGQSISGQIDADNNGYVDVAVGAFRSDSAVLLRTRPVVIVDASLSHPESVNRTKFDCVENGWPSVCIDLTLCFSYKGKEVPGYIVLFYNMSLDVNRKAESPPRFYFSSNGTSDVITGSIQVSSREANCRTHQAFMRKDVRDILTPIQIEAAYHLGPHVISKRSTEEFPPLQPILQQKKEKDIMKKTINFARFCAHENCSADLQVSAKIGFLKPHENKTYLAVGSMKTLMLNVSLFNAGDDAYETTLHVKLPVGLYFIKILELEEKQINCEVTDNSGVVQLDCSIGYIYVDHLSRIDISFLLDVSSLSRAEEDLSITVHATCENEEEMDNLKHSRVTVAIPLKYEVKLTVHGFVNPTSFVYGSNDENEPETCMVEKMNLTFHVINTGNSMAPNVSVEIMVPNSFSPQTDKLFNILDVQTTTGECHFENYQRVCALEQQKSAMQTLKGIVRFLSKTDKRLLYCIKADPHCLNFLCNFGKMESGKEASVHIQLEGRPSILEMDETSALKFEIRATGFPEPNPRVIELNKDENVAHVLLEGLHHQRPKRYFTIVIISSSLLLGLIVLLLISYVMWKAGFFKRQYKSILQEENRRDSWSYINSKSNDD
# T1 sequence (P26010 20-798): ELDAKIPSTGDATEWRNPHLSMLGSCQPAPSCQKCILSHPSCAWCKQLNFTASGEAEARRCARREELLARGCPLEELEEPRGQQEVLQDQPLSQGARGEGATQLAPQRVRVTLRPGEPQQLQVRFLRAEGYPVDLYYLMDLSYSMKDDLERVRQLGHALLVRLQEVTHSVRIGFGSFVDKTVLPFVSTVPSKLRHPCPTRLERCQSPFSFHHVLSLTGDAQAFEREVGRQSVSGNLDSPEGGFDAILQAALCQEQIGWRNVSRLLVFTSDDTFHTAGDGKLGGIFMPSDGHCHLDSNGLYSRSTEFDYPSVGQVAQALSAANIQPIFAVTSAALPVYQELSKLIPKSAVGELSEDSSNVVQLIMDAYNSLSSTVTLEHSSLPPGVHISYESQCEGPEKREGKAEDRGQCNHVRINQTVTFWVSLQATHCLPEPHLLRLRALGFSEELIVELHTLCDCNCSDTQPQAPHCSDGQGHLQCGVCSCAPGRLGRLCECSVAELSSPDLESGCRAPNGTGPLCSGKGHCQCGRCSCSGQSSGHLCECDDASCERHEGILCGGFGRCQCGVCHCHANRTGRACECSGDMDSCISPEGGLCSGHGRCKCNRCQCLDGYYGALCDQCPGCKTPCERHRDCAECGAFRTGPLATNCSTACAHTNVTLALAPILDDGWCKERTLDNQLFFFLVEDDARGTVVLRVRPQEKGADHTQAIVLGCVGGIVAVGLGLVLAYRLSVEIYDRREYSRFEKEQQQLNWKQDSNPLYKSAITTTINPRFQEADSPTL
# Protocol: Jurkat J6 cells (human lymphoblast cell line) were grown as a suspension culture in RPMI 1640 supplemented with FCS (10%) and glutamine (2 mM). RPMI8866 cells (human B lymphoid cell line) were grown as a suspension culture in RPMI 1640 supplemented with FCS (10%) and glutamine (2 mM). RBL-2H3 cells (rat basophilic cell line) were cultured in Eagle's MEM plus Earles salts supplemented with 2 mM L-glutamine, 1 mM sodium pyruvate, 1× non-essential amino acids, 1 mM Na pyruvate 10% heat inactivated foetal calf serum.
# Polystyrene 96-well microtitre plates were coated with IgG at a concentration of 0.05 mg/mL in bicarbonate buffer for 2.5 hours at 37° C. The solution was aspirated and the plates washed twice with PBS. The plates were then incubated overnight at 4° C. with MAdCAM at a concentration of 204.0 ng/mL in 3% BSA in PBS. Prior to use the MAdCAM was aspirated and the plates washed twice with PBS. J6 or RPMI cells (as required) were labelled with the fluorescent dye BCECF-AM (10 μM and 6×10^6 cells/mL) for 10 min at 37° C. before the excess was removed by centrifugation at 500 g for 5 min and the cells resuspended at a cell concentration of 1.2×10^7 cells/mL in HBSS. Equal volumes of HBSS containing the compound of formula I (over concentration range 38.1 pM to 10 μM) and cells were added to the MAdCAM coated plates. […] The plates were counted in a Wallac Viktor.
# [1] = PK study in rabbits, ocular tissue concentrations (LC-MS/MS); type: in vivo, New Zealand White rabbits; details: for Tmax: topical or ocular, both studies; for concentration at 6 h: persisted up to 6 hours
# Protocol: The potassium salt of GW559090, referred to herein as GW559090A, was given to male New Zealand White rabbits by topical ocular administration as a single bilateral drop (Study #1: n=2 rabbits/4 eyes per time point; Study #2: n=3 rabbits/6 eyes per time point). At designated times (0.5, 1, 3, 6 hours post administration), ocular tissues were collected and processed for analysis. Concentrations of GW559090 were measured in cornea and bulbar conjunctiva by liquid chromatography with tandem mass spectrometry (LC-MS/MS).
# [2] = male, New Zealand White, rabbit, conjunctiva, topical, 40 μL (50 mg/mL) GW559090A, read-out: Conjunctival tissue concentration
# [3] = male, New Zealand White, rabbit, cornea, topical, 40 μL (50 mg/mL) GW559090A, read-out: Corneal tissue concentration
# [4] = single topical 40 μL (50 mg/mL) GW559090A
smiles,measurement,setting,value
"Cc1ccccc1OCC(=O)N[C@@H](CC(C)C)C(=O)N[C@@H](Cc1ccc(OC(=O)N2CCC(C(N)=O)CC2)cc1)C(=O)O [GW559090, (2S)-3-[4-({[4-(Aminocarbonyl)-1-piperidinyl]carbonyl}oxy)phenyl]-2-[((2S)-4-methyl-2-{[2-(2-methylphenoxy)acetyl]amino}pentanoyl)amino]propanoic acid]",pIC50,α4β7-MAdCAM,7.64
same,Mean cornea concentrations versus mean conjunctiva concentrations,[1]; 3 and 6 hour postdose,higher
same,Tmax,"[1]; male, New Zealand White, rabbit, bulbar conjunctiva, single topical 40 μL (50 mg/mL) GW559090A, read-out: Tmax in bulbar conjunctiva",60 min
same,concentration at 30 min,[1]; [2],> 3000 ng/mL
same,concentration at 6 h,[1]; [2],~358 ng/mL
same,Tmax,"[1]; male, New Zealand White, rabbit, cornea, single topical 40 μL (50 mg/mL) GW559090A, read-out: Tmax in cornea",30 min
same,concentration at 30 min,[1]; [3],> 3000 ng/mL
same,concentration at 3 h,"[1]; male, New Zealand White, rabbit, cornea, topical, at 3 hours, 40 μL (50 mg/mL) GW559090A, read-out: Corneal tissue concentration",> 1000 ng/mL
same,concentration at 6 h,[1]; [3],~358 ng/mL
same,Mean conjunctiva concentrations quantifiable through,[1]; [4],6 h
same,Mean cornea concentrations quantifiable through,[1]; [4],6 h
